Measured values taken from patent publication US20080171072A1, “OCULAR INSERTS CONTAINING APOMORPHINE” (priority 2006, published 2008).

What was measured:
[1] = Autoclaving of the casting solution; assay type: physicochemical; conditions: preliminary trial
canine patients [2] = conditions: intravenous route
Excerpt: On the report forms supplied with the product, if any of these occurred the clinicians were asked to grade them on a subjective scale of 1 to 5 with a score of 1 being mild and 5 being severe. The clinicians were also asked to rate the ease of use of the inserts for each case with a score of 5 being very easy to use and 1 being very difficult.

canine patients [3] = system: canine patients
[4] = subjective scale, 5 severe, Median (25%-75%)

Row | SMILES | stability under conditions required for autoclaving [1] | Prolonged vomiting, Frequency (%) (canine patients [2]; n = 32) | Sedation, Frequency (%) (canine patients [2]; n = 32) | Tachycardia, Frequency (%) (canine patients [2]; n = 32) | Prolonged vomiting, Score (canine patients [2]; [4]) | Sedation, Score (canine patients [2]; [4]) | Tachycardia, Score (canine patients [2]; [4]) | % of Patients, Success (canine patients [3]; intravenous 0.03-0.04 mg kg-1, emesis within 15 minutes, n 32) [%] | Time to emesis (canine patients [3]; intravenous 0.03-0.04 mg kg-1, median, n 32 (Success 29)) [min] | % of Patients, Failure (canine patients [3]; intravenous 0.03-0.04 mg kg-1, n 32) [%] | % of patients showing no emesis at all (canine patients [3]; intravenous route, n 32) [%]
1 | CN1CCc2cccc3c2[C@H]1Cc1ccc(O)c(O)c1-3 [apomorphine] | unstable | – | – | – | – | – | – | – | – | – | –
2 | CN1CCc2cccc3c2[C@H]1Cc1ccc(O)c(O)c1-3.Cl [intravenous apomorphine, apomorphine HCI] | – | 3.1 | 43.8 | 15.6 | 3 (3-3) | 2 (1-2) | 2 (2-3) | 90.6 | 1.0 | 9.4 | 9.4
